The target in test [1] is T1, aldose reductase (Bos taurus, UniProt P16116).
T1 construct: isolated in known manner from bovine lenses; from tissue; host or cells: bovine lenses
The test is described as follows: in vitro inhibition of partially purified aldose reductase isolated from bovine lenses (spectrophotometric). In kind it is biochemical. The note with it: read-out: IC50 in the in vitro test. The text has this:
Thus, in a standard procedure partially purified aldose reductase is isolated in known manner from bovine lenses. The percentage inhibition of this enzyme's ability in vitro to catalyse the reduction of aldoses to polyhydric alcohols, and particularly to reduce glucose or sorbitol, caused by a test compound can then be determined using standard spectrophotometric methods.

For test [2], the target named is T2, aldose reductase (Rattus norvegicus, UniProt P07943).
T2 construct: the eye lenses and/or sciatic nerves are removed; from tissue; host or cells: rat eye lenses and/or sciatic nerves (in vivo, streptozotocin-diabetic rats)
Description: in vivo inhibition of aldose reductase in streptozotocin diabetic rats (residual sorbitol levels in eye lenses and/or sciatic nerves). The note with it: dosed daily for one, two or five days, read-out: ED50 in the in vivo test. Here is the method:
Rats are made diabetic (as evidenced by severe glucosuria being present) by dosing with streptozotocin. The animals are then dosed daily with the test compound for one, two or five days. The animals are then sacrificed 2-6 hours after the final dose and the eye lenses and/or sciatic nerves are removed. After a standard work-up procedure the residual sorbitol levels in each tissue are determined by gas liquid chromatography after conversion to the polytrimethylsilyl derivatives. Inhibition of aldose reductase in vivo can then be assessed by comparing the residual sorbitol levels in tissues from the dosed diabetic group of rats with those of an undosed group of diabetic rats and an undosed, normal group of rats.

IC50 and ED50 data for one compound are collected here from patent US5102905A, “Thienyl benzothienyl and dibenzothienyl compounds as inhibitors of aldose reductase” (Imperial Chemical Industries PLC, priority 1988, dated 1992).

What is called IC50 is the concentration at which inhibition is half-maximal. Usually ED50 stands for the dose that gives a 50% effect, or the effect in half of the subjects. On to `O=[N+]([O-])CS(=O)(=O)c1cccs1` [Example 1, 2-(nitromethylsulphonyl)thiophene], for which the IC50 at aldose reductase [1] came to 54 nM. Besides, the ED50 at aldose reductase [2] was 2.1 mg/kg.
